Measurements as given in patent US11141413B2, “Method of treating renal cell carcinoma using N-(4-(6,7-dimethoxyquinolin-4-yloxy)phenyl)-N′-(4-fluorophenyl)cyclopropane-1,1-dicarboxamide, (2S)-hydroxybutanedioate” (Exelixis, Inc., priority 2016, dated 2021).

System: patients with advanced renal cell carcinoma
Conditions: in vivo
Experimental: Treatment modifications, including interruptions and dose reductions, were allowed to manage adverse events. […] Patients were allowed to continue study treatment beyond radiographic progression at the discretion of the investigator. On-study crossover between treatment groups was not permitted. Safety evaluations, including physical examination, vital signs, and laboratory assessments, were conducted every 2 weeks for the first 8 weeks and then every 4 weeks thereafter. ECG assessments were performed every 4 weeks for the first 8 weeks and then every 12 weeks. A safety follow-up visit was scheduled 30 days after treatment discontinuation. Adverse events were assessed by investigators and graded according to CTCAE version 4.0.
Safety analyses were limited to patients who received any amount of study treatment.

SMILES: CO[C@H]1C[C@@H]2CC[C@@H](C)[C@@](O)(O2)C(=O)C(=O)N2CCCC[C@H]2C(=O)O[C@H]([C@H](C)C[C@@H]2CC[C@@H](OCCO)[C@H](OC)C2)CC(=O)[C@H](C)/C=C(\C)[C@@H](O)[C@@H](OC)C(=O)[C@H](C)C[C@H](C)/C=C/C=C/C=C/1C [everolimus]
- Grade 3 and 4 adverse events: Diarrhea, % (human): 3%
- Grade 3 or 4 Adverse Events: Diarrhea, % (human): (3) %
- Grade 3 or 4 Adverse Events: Hypokalaemia, % (human): (2) %
- Grade 3 or 4 Adverse Events: PPES, % (human): (1) %
- Grade 3 or 4 adverse events (human): 193 (60%) n (%)
- Grade 5 adverse events regardless of causality (human): 7.8%
- Headache, All Grades (human): 12%
- Headache, Grade 1-2 (human): 42 (13) n (%)
- Headache, Grade 3 (human): 1 (<1) n (%)
- Headache, Grade 3-4 (human): <1%
- Headache, Grade 4 (human): 0 n (%)
- Hemoglobin decreased, All Grades (human): 71%
- Hemoglobin decreased, Grade 3-4 (human): 17%
- Hyperglycemia, All Grades (human): 59%
- Hyperglycemia, Grade 1-2 (human): 46 (14) n (%)
- Hyperglycemia, Grade 3 (human): 16 (5) n (%)
- Hyperglycemia, Grade 3-4 (human): 8%
- Hyperglycemia, Grade 4 (human): 0 n (%)
- Hyperglycemia, grade 3 or 4 (human): 16 [5%] n [%]
- Hypertension, All Grades (human): 8%
- Hypertension, Grade 1-2 (human): 14 (4) n (%)
- Hypertension, Grade 3 (human): 12 (4) n (%)
- Hypertension, Grade 3-4 (human): 3%
- Hypertension, Grade 4 (human): 0 n (%)
- Hypertriglyceridemia, Grade 1-2 (human): 31 (10) n (%)
- Hypertriglyceridemia, Grade 3 (human): 7 (2) n (%)
- Hypertriglyceridemia, Grade 4 (human): 3 (<1) n (%)
- Hypoalbuminemia, All Grades (human): 28%
- Hypoalbuminemia, Grade 3-4 (human): <1%
- Hypomagnesaemia, Grade 1-2 (human): 5 (2) n (%)
- Hypomagnesaemia, Grade 3 (human): 0 n (%)
- Hypomagnesaemia, Grade 4 (human): 0 n (%)
- Hypomagnesemia, All Grades (human): 4%
- Hypomagnesemia, Grade 3-4 (human): <1%
- Hyponatremia, All Grades (human): 26%
- Hyponatremia, Grade 3-4 (human): 6%
- Hypophosphatemia, All Grades (human): 36%
- Hypophosphatemia, Grade 3-4 (human): 5%
- Hypothyroidism, All Grades (human): <1%
- Hypothyroidism, Grade 1-2 (human): 1 (<1) n (%)
- Hypothyroidism, Grade 3 (human): 1 (<1) n (%)
- Hypothyroidism, Grade 3-4 (human): <1%
- Hypothyroidism, Grade 4 (human): 0 n (%)
- Incidence of Grade ≥3 hemorrhagic events (human): 1.6%
- Insomnia, Grade 1-2 (human): 33 (10) n (%)
- Insomnia, Grade 3 (human): 1 (<1) n (%)
- Insomnia, Grade 4 (human): 0 n (%)
- Lymphocytes decreased, All Grades (human): 39%
- Lymphocytes decreased, Grade 3-4 (human): 12%
- Mucosal inflammation, All Grades (human): 23%
- Mucosal inflammation, Grade 1-2 (human): 64 (20) n (%)
- Mucosal inflammation, Grade 3 (human): 10 (3) n (%)
- Mucosal inflammation, Grade 3-4 (human): 3%
- Mucosal inflammation, Grade 4 (human): 1 (<1) n (%)
- Muscle spasms, All Grades (human): 5%
- Muscle spasms, Grade 1-2 (human): 17 (5) n (%)
- Muscle spasms, Grade 3 (human): 0 n (%)
- Muscle spasms, Grade 3-4 (human): 0%
- Muscle spasms, Grade 4 (human): 0 n (%)
- Nausea, All Grades (human): 28%
- Nausea, Grade 1-2 (human): 92 (29) n (%)
- Nausea, Grade 3 (human): 1 (<1) n (%)
- Nausea, Grade 3-4 (human): <1%
- Nausea, Grade 4 (human): 0 n (%)
- Overall incidence of adverse events regardless of causality (human): > 99%
- Pain in extremity, All Grades (human): 8%
- Pain in extremity, Grade 1-2 (human): 31 (10) n (%)
- Pain in extremity, Grade 3 (human): 1 (<1) n (%)
- Pain in extremity, Grade 3-4 (human): <1%
- Pain in extremity, Grade 4 (human): 0 n (%)
- Palmar-plantar erythrodysaesthesia syndrome, Grade 1-2 (human): 16 (5) n (%)
- Palmar-plantar erythrodysaesthesia syndrome, Grade 3 (human): 3 (<1) n (%)
- Palmar-plantar erythrodysaesthesia syndrome, Grade 4 (human): 0 n (%)
- Palmar-plantar erythrodysesthesia syndrome, All Grades (human): 6%
- Palmar-plantar erythrodysesthesia syndrome, Grade 3-4 (human): <1%
- Patients with dose reduced (human): 24%
- Patients with dose reductions (human): 25%
- Platelets decreased, All Grades (human): 27%
- Platelets decreased, Grade 3-4 (human): <1%
- Proteinuria, All Grades (human): 9%
- Proteinuria, Grade 1-2 (human): 28 (9) n (%)
- Proteinuria, Grade 3 (human): 2 (<1) n (%)
- Proteinuria, Grade 3-4 (human): <1%
- Proteinuria, Grade 4 (human): 0 n (%)
- Pruritus, Grade 1-2 (human): 48 (15) n (%)
- Pruritus, Grade 3 (human): 1 (<1) n (%)
- Pruritus, Grade 4 (human): 0 n (%)
- Pulmonary embolism (human): 0.3%
- Pyrexia, Grade 1-2 (human): 57 (18) n (%)
- Pyrexia, Grade 3 (human): 2 (<1) n (%)
- Pyrexia, Grade 4 (human): 0 n (%)
- Rash, All Grades (human): 43%
- Rash, Grade 1-2 (human): 92 (29) n (%)
- Rash, Grade 3 (human): 2 (<1) n (%)
- Rash, Grade 3-4 (human): <1%
- Rash, Grade 4 (human): 0 n (%)
- Serious adverse events ≥grade 3 (human): 129 (40%) n (%)
- Stomatitis, All Grades (human): 24%
- Stomatitis, Grade 1-2 (human): 71 (22) n (%)
- Stomatitis, Grade 3 (human): 7 (2) n (%)
- Stomatitis, Grade 3-4 (human): 2%
- Stomatitis, Grade 4 (human): 0 n (%)
- Study treatment discontinuation due to diarrhea (human): 0.9%
- Treatment discontinuation due to an adverse event not related to disease progression (human): 10%
- Treatment-emergent hypertension (human): 7.1%
- Treatment-emergent hypertension, Grade ≥3 (human): 3.1%
- Triglycerides increased, All Grades (human): 73%
- Triglycerides increased, Grade 3-4 (human): 13%
- Venous thromboembolism (human): 2.5%
- Vomiting, All Grades (human): 14%
- Vomiting, Grade 1-2 (human): 44 (14) n (%)
- Vomiting, Grade 3 (human): 3 (<1) n (%)
- Vomiting, Grade 3-4 (human): <1%
- Vomiting, Grade 4 (human): 0 n (%)
- Weight decreased, All Grades (human): 12%
- Weight decreased, Grade 1-2 (human): 42(13) n (%)
- Weight decreased, Grade 3 (human): 0 n (%)
- Weight decreased, Grade 3-4 (human): 0%
- Weight decreased, Grade 4 (human): 0 n (%)
- White blood cells decreased, All Grades (human): 31%
- White blood cells decreased, Grade 3-4 (human): <1%
- Grade 5 adverse events assessed as treatment-related: two
